# Columns and labels:
# Aedes aegypti = assay: Laboratory evaluation as mosquito repellant on human volunteers; assay type: in vivo; conditions: 10% or 30%; human forearm
# Description: However, one of the major uses of DEET is against mosquitoes. Therefore, we wanted to test whether Lipodeet prolongs the mosquito repellency activity of DEET. These experiments were conducted on human volunteers at the Illinois Natural History Survey Center for Economic Entomology, University of Illinois Urbana-Champaign. […] The test solutions were applied to 8.5 cm area (1.76 μl/cm^2) on the forearm of the subjects and the duration of repellency against the mosquitoes was evaluated over a period of 24 hrs. No treatment was applied to the other forearm and this remained as controls. Paper cups (1 pint) screened at one end with a fine mesh and closed at the other end was used as test cages in this study. […] Five minutes after application of the samples were treated as time 0. After the exposure, mosquitoes were removed and the number that were blooded were counted. Values were expressed as follows: [formula]
# [1] = Absorption through skin: DEET level in plasma by HPLC; assay type: in vivo, mice; conditions: 200 μl of 60% on abdominal skin
# Description: Briefly, the Bond-Elute cartridges were activated by washing with two ml of HPLC grade acetonitrile (Sigma chemicals Co., St. Louis, Mo.) followed by two ml of deionized, degassed filtered water. A low vacuum (<0.5 in Hg) was applied for the wash using a Vac-Elute manifold (Varian Analytical Supplies Co.). […] Hg). The cartridge was then washed with three mls. of acetonitrile-ammoniumacetate (pH 4.5, 0.03 M, at 40:60 V:V) under low vacuum (<0.5 in. Hg). The eluant was then injected directly onto columns (ODS-1, 250×4.6 mm, Alltech Co., Deerfield, Ill.) for HPLC analysis (Waters, Division of Millipore, Milford, Mass.). Chromatographic conditions used for HPLC analysis is as follows: Mobil phase: acetonitrile-ammoniumacetate (pH 4.5, 0.03M, at 36:64 v:v), flow rate 1.0 ml/min, UV detection at 220 nm. Sensitivity was set at 0.01AUFS. […].
# Dermacetor variabilis = assay: Tick attachment to rabbit ear, Dermacetor variabilis; assay type: in vivo
# Description: To determine the effect of DEET on tick attachment and feeding we used two species of ticks Amblyoma americanum and Dermacetor variabilis purchased from University of Oklahoma. Ticks were allowed to feed on the ears of male New Zealand white rabbits purchased from Charles River. For feeding, five ticks were introduced into a 60 μm sieve cell well (Fisher Scientific) which was attached to the ear of the rabbit with nail glue. Ticks were observed every 30 minutes for the first eight hours to assess skin attachment and feeding behavior. Tick attachment was defined as the minimum time required for 3 of the 5 ticks to attach to the ear. […] The observation was continued for 72 hours for both species of ticks. Separate rabbits were used for each species and for each treatment. […] All the ticks in this study were active until attachment.
# In this series of experiments, the protective effect(s) of different concentrations of DEET and Lipodeet on the attachment of nymphs and adults of two species of ticks, A. americanum and D. variabilis, to the rabbit ear was evaluated. Experiments were set up wherein different concentrations (20% or 40% of DEET or Lipodeet were applied (0.2 ml of the samples to 10 cm^2 surface area), onto the dorsal side of the ear lobes of a rabbit. After allowing the preparation to dry for 30 min., sieve cups (Fisher Scientific, 1″ inner diameter) were then attached to the ear lobes using nail glue. Ten nymphs or five adult ticks were then introduced into the sieve cups every 24 hrs through a small slit made on the sieve membrane. Attachment of ticks to the skin was monitored every 24 hrs. for up to 72 hrs. after introduction of the ticks.
# More than 60% of ticks used in our experiments were dead after contact with Lipodeet. Although a well-aerated sieve cup was used (1″ inner diameter), we initially thought that the tick mortality may be due to possible DEET vapor trapped within the sieve cup. Therefore, we designed experiments where one half of the surface area of skin within the sieve cup was treated with 40% Lipodeet and the other half was left untreated. Five adults ticks of A. americanum were then introduced into the sieve cups every 24 hrs. After 72 hrs., the sieve cups were removed.
smiles,measurement,setting,value
"CCN(CC)C(=O)c1cccc(C)c1 [DEET, N,N-diethyl-m-toluamide]",duration of mosquito repellent effect,Aedes aegypti,completely lost by six hours
same,DEET present in the plasma,[1]; 15 min,11.6 mg
same,"DEET present in the plasma, percent",[1]; 15 min,9.7%
same,DEET present in the plasma,[1]; 30 min,5.3 mg
same,"DEET present in the plasma, percent",[1]; 30 min,4.4%
same,DEET present in the plasma,[1]; 60 min,~0.182 mg
same,"DEET present in the plasma, percent",[1]; 60 min,0.15%
same,initial time with no tick attachment,"Dermacetor variabilis; 10% DEET on rabbit ear, normal rabbits 4.5 hours",7.0 h
same,time effective in preventing attachment of adult ticks,"Dermacetor variabilis; 20%, adults",up to 24 hrs
same,time effective in preventing attachment of nymphs,"Dermacetor variabilis; 20%, nymphs",up to 48 hrs
same,"effect of raising concentration, adult ticks","Dermacetor variabilis; 40% versus 20%, adults",slightly more effective at 48 hrs
same,"effect of raising concentration, nymphs","Dermacetor variabilis; 40% versus 20%, nymphs",no added advantage against nymphs
